Reference: US12612371B2, “Sigma-1 receptor ligands and therapeutic uses thereof” (UNIVERSITE DE STRASBOURG, priority 2019, dated 2026)

target: T1, sigma 1 (h) (Homo sapiens, UniProt Q99720); test: σ1 binding assay ([3H](+)pentazocine displacement, Jurkat cell membranes); settings: compound at 10 nM, [3H](+)pentazocine 15 nM, 37° C., 2 hours, read-out: Sigma-1 receptor % inhibition 10 nM
T1 construct: incubating Jurkat cell membranes (10-20 mg protein per tube) with [^3H](+) pentazocine; endogenous in cells; host or cells: Jurkat cell membranes
T1 sequence (Q99720 whole entry): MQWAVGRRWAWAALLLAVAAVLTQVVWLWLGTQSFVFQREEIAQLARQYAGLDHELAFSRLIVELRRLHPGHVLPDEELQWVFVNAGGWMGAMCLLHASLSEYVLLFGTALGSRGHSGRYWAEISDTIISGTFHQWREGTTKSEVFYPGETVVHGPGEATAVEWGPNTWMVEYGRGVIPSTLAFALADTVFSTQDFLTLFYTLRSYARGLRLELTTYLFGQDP
Protocol: The σ1 binding assays were performed according to Ganapathy et al (Ganapathy, M. E. et al. (1999), J. Pharmacol. Exp. Ther., 28:251-260). The σ1 binding assay was carried out by incubating Jurkat cell membranes (10-20 mg protein per tube) with [^3H](+) pentazocine a selective S1R ligand (15 nM) and a range of concentration of tested compounds, at 37° C. for 2 hours in 5 mM tris/HCl buffer (pH=7.4). The inhibition of [3H]-(+)-pentazocine binding assay is mainly used to determine the inhibition constant (Ki) of potential SIR ligands. These assays are performed with a single concentration of [^3H]-(+)-pentazocine at a concentration near its KD and increasing concentrations of non-radioactive ligands.

Structure (SMILES) | inhibition at 0.01 µM [%]
CN(CCCn1nccc(-c2ccccc2)c1=O)Cc1ccccc1 [9a, 2-(3-(benzyl(methyl)amino)propyl)-4-phenylpyridazin-3(2H)-one] | 61.5
O=c1c(-c2ccccc2)ccnn1CCCN1CCCCCC1 [9b, 2-(3-(azepan-1-yl)propyl)-4-phenylpyridazin-3(2H)-one] | 47.4
O=c1c(-c2ccccc2)ccnn1CCCN1CCOCC1 [9c, 2-[3-(morpholin-4-yl)propyl]-4-phenyl-2,3-dihydropyridazin-3-one] | 7.6
CN(CCCCn1nccc(-c2ccccc2)c1=O)Cc1ccccc1 [10a, 2-(4-(benzyl(methyl)amino)butyl)-4-phenylpyridazin-3(2H)-one] | 87.5
O=c1c(-c2ccccc2)ccnn1CCCCN1CCOCC1 [10b, 2-(4-morpholinobutyl)-4-phenylpyridazin-3(2H)-one] | 14.5
O=c1c(-c2ccccc2)ccnn1CCCCN1CCCOCC1 [10c, 2-(4-(1,4-oxazepan-4-yl)butyl)-4-phenylpyridazin-3(2H)-one] | 40.3
O=c1c(-c2ccccc2)ccnn1CCCCN1CCCCC1 [10d, 4-phenyl-2-(4-(piperidin-1-yl)butyl)pyridazin-3(2H)-one] | 28.3
O=c1c(-c2ccccc2)ccnn1CCCCN1CCCCCC1 [10e, 2-(4-(azepan-1-yl)butyl)-4-phenylpyridazin-3(2H)-one] | 30.2
O=c1c(-c2ccccc2)ccnn1CCCCN1CCCCCCC1 [10f, 2-(4-(azocan-1-yl)butyl)-4-phenylpyridazin-3(2H)-one] | 70
O=c1c(-c2ccccc2)ccnn1CCCCN1CCc2ccccc2C1 [10g, 2-(4-(3,4-dihydroisoquinolin-2(1H)-yl)butyl)-4-phenylpyridazin-3(2H)-one] | 73.5
O=c1c(-c2ccccc2)ccnn1CCCCN1CCc2ccccc2CC1 [10h, 4-phenyl-2-(4-(1,2,4,5-tetrahydro-3H-benzo[d]azepin-3-yl)butyl)pyridazin-3(2H)-one] | 70.8
O=c1c(-c2ccccc2)ccnn1CCCCNC12CC3CC(CC(C3)C1)C2 [10i, 2-(4-(adamantan-1-ylamino)butyl)-4-phenylpyridazin-3(2H)-one] | 37.1
CN(CCCCn1nccc(-c2ccccc2)c1=O)C12CC3CC(CC(C3)C1)C2 [10j, 2-(4-(adamantan-1-yl(methyl)amino)butyl)-4-phenylpyridazin-3(2H)-one] | 4.9
CC1(C)CC2CC(C)(CN2CCCCn2nccc(-c3ccccc3)c2=O)C1 (stereo not shown) [10k, 4-phenyl-2-(4-(1,3,3-trimethyl-6-azabicyclo[3.2.1]octan-6-yl)butyl)pyridazin-3(2H)-one] | 3.7
O=c1c(-c2ccccc2)ccnn1CCCCN(Cc1ccccc1)CC1CCCO1 (stereo not shown) [10m, 2-(4-(benzyl((tetrahydrofuran-2-yl)methyl)amino)butyl)-4-phenylpyridazin-3(2H)-one] | 28.8
COCC(c1ccccc1)N(C)CCCCn1nccc(-c2ccccc2)c1=O (stereo not shown) [10o, 2-(4-((2-methoxy-1-phenylethyl)(methyl)amino)butyl)-4-phenylpyridazin-3(2H)-one] | 25.6
CN(CCCCn1nccc(-c2ccccc2)c1=O)CC1CCOCC1 [10q, 2-(4-(methyl((tetrahydro-2H-pyran-4-yl)methyl)amino)butyl)-4-phenylpyridazin-3(2H)-one] | 29.4
O=c1c(-c2ccccc2)ccnn1CCCCN1CCCC(c2ccccc2)C1 (stereo not shown) [10r, 4-phenyl-2-(4-(3-phenylpiperidin-1-yl)butyl)pyridazin-3(2H)-one] | 78.7
O=c1c(-c2ccccc2)ccnn1CCCCN1CCC(c2ccccc2)CC1 [10s, 4-phenyl-2-(4-(4-phenylpiperidin-1-yl)butyl)pyridazin-3(2H)-one] | 64.6
O=c1c(-c2ccccc2)ccnn1CCCCN1CCCC(CO)C1 (stereo not shown) [10t, 2-(4-(3-(hydroxymethyl)piperidin-1-yl)butyl)-4-phenylpyridazin-3(2H)-one] | 9.7
O=c1c(-c2ccccc2)ccnn1CCCCN1CCOC(c2ccccc2)C1 (stereo not shown) [10w, 4-phenyl-2-(4-(2-phenylmorpholino)butyl)pyridazin-3(2H)-one] | 37.6
CC1CN(CCCCn2nccc(-c3ccccc3)c2=O)CC(C)O1 (stereo not shown) [10x, 2-(4-(2,6-dimethylmorpholino)butyl)-4-phenylpyridazin-3(2H)-one] | 34.6
O=c1c(-c2ccccc2)ccnn1CCCCN1CCN(Cc2ccccc2)CC1 [10z, 2-[4-(4-benzylpiperazin-1-yl)butyl]-4-phenyl-2,3-dihydropyridazin-3-one] | 64.2
O=c1cc(-c2ccccc2)cnn1CCCCN1CCOCC1 [compound 14, 2-(4-morpholinobutyl)-5-phenylpyridazin-3(2H)-one] | 2.1

More lines, now with the values ahead:

inhibition at 0.01 µM [%] | Structure (SMILES)
83.4 | O=c1c(-c2ccccc2)ccnn1CCCCN1CCC(Cc2ccccc2)CC1 [11a, 2-[4-(4-benzylpiperidin-1-yl)butyl]-4-phenyl-2,3-dihydropyridazin-3-one]
73.9 | CCN(CCCCn1nccc(-c2ccccc2)c1=O)Cc1ccccc1 [11b, 2-{4-[benzyl(ethyl)amino]butyl}-4-phenyl-2,3-dihydropyridazin-3-one]
16.1 | O=c1c(-c2ccccc2)ccnn1CCCCN1CCN(c2ccccc2)CC1 [11d, 4-phenyl-2-[4-(4-phenylpiperazin-1-yl)butyl]-2,3-dihydropyridazin-3-one]
7.4 | O=c1c(-c2ccccc2)ccnn1CCCCN1CCC[C@H]2CCCC[C@@H]21 [11e, 2-{4-[(4aR,8aS)-decahydroquinolin-1-yl]butyl}-4-phenyl-2,3-dihydropyridazin-3-one]
12 | O=c1c(-c2ccc(F)cc2)ccnn1CCCCN1CCOCC1 [11h, 4-(4-fluorophenyl)-2-(4-morpholinobutyl)pyridazin-3(2H)-one]
1.9 | O=c1c(-c2ccc(Cl)cc2)ccnn1CCCCN1CCOCC1 [11k, 4-(4-chlorophenyl)-2-[4-(morpholin-4-yl)butyl]-2,3-dihydropyridazin-3-one]
69.1 | O=c1c(-c2cccc(Cl)c2)ccnn1CCCCN1CCOCC1 [11l, 4-(3-chlorophenyl)-2-[4-(morpholin-4-yl)butyl]-2,3-dihydropyridazin-3-one]
5.04 | O=c1c(-c2ccccc2Cl)ccnn1CCCCN1CCOCC1 [11m, 4-(2-chlorophenyl)-2-[4-(morpholin-4-yl)butyl]-2,3-dihydropyridazin-3-one]
6.13 | O=c1c(-c2ccc(C(F)(F)F)cc2)ccnn1CCCCN1CCOCC1 [11n, 2-[4-(morpholin-4-yl)butyl]-4-[4-(trifluoromethyl)phenyl]-2,3-dihydropyridazin-3-one]
33.4 | O=c1c(-c2ccsc2)ccnn1CCCCN1CCOCC1 [11o, 2-[4-(morpholin-4-yl)butyl]-4-(thiophen-3-yl)-2,3-dihydropyridazin-3-one]
15.6 | O=c1c(-c2ccoc2)ccnn1CCCCN1CCOCC1 [11p, 4-(furan-3-yl)-2-[4-(morpholin-4-yl)butyl]-2,3-dihydropyridazin-3-one]
1.1 | O=c1c(CCc2ccccc2)ccnn1CCCCN1CCOCC1 [21a, 2-[4-(morpholin-4-yl)butyl]-4-(2-phenylethyl)-2,3-dihydropyridazin-3-one]
15.8 | O=c1c(N2CCCCC2)ccnn1CCCCN1CCOCC1 [25a, 2-(4-morpholinobutyl)-4-(piperidin-1-yl)pyridazin-3(2H)-one]
12.3 | CN(Cc1ccccc1)CC(O)CCn1nccc(-c2ccccc2)c1=O (stereo not shown) [33a, 2-(4-(benzyl(methyl)amino)-3-hydroxybutyl)-4-phenylpyridazin-3(2H)-one]
1.4 | Cc1ncc(-c2ccccc2)c(=O)n1CCCCN1CCOCC1 [40a, 2-methyl-3-(4-morpholinobutyl)-5-phenylpyrimidin-4(3H)-one]
1.4 | O=c1c(-c2ccccc2)cncn1CCCCN1CCOCC1 [40b, 3-[4-(morpholin-4-yl)butyl]-5-phenyl-3,4-dihydropyrimidin-4-one]
3 | O=c1c(-c2ccccc2)cccn1CCCCN1CCOCC1 [41a, 1-[4-(morpholin-4-yl)butyl]-3-phenyl-1,2-dihydropyridin-2-one]

same assay, conditions: compound at 100 nM, [3H](+)pentazocine 15 nM, 37° C., 2 hours, read-out: Sigma-1 receptor % inhibition 100 nM

Structure (SMILES) | inhibition at 0.1 µM [%]
O=c1c(-c2ccccc2)ccnn1CCCCN1CCCOCC1 [10c, 2-(4-(1,4-oxazepan-4-yl)butyl)-4-phenylpyridazin-3(2H)-one] | 80.3
COCC(c1ccccc1)N(C)CCCCn1nccc(-c2ccccc2)c1=O (stereo not shown) [10o, 2-(4-((2-methoxy-1-phenylethyl)(methyl)amino)butyl)-4-phenylpyridazin-3(2H)-one] | 68.3
CN(CCO)CCCCn1nccc(-c2ccccc2)c1=O [10p, 2-(4-((2-hydroxyethyl)(methyl)amino)butyl)-4-phenylpyridazin-3(2H)-one] | 9.7
CN(CCCCn1nccc(-c2ccccc2)c1=O)CC1CCOCC1 [10q, 2-(4-(methyl((tetrahydro-2H-pyran-4-yl)methyl)amino)butyl)-4-phenylpyridazin-3(2H)-one] | 79.6
O=c1c(-c2ccccc2)ccnn1CCCCN1CCCC(c2ccccc2)C1 (stereo not shown) [10r, 4-phenyl-2-(4-(3-phenylpiperidin-1-yl)butyl)pyridazin-3(2H)-one] | 92.1
O=c1c(-c2ccccc2)ccnn1CCCCN1CCCC(CO)C1 (stereo not shown) [10t, 2-(4-(3-(hydroxymethyl)piperidin-1-yl)butyl)-4-phenylpyridazin-3(2H)-one] | 38.2
O=c1c(-c2ccccc2)ccnn1CCCCN1CCCCC1CCO (stereo not shown) [10u, 2-(4-(2-(2-hydroxyethyl)piperidin-1-yl)butyl)-4-phenylpyridazin-3(2H)-one] | 26.5
O=c1c(-c2ccccc2)ccnn1CCCCN1CCOC(c2ccccc2)C1 (stereo not shown) [10w, 4-phenyl-2-(4-(2-phenylmorpholino)butyl)pyridazin-3(2H)-one] | 79.4
CC1CN(CCCCn2nccc(-c3ccccc3)c2=O)CC(C)O1 (stereo not shown) [10x, 2-(4-(2,6-dimethylmorpholino)butyl)-4-phenylpyridazin-3(2H)-one] | 76.2

Other lines, results leading:

inhibition at 0.1 µM [%] | Structure (SMILES)
86 | Cc1cc(-c2ccccc2)c(=O)n(CCCCN(C)Cc2ccccc2)n1 [11v, 2-{4-[benzyl(methyl)amino]butyl}-6-methyl-4-phenyl-2,3-dihydropyridazin-3-one]
53.9 | Cc1cc(-c2ccccc2)c(=O)n(CCCCN2CCCCCC2)n1 [11w, 2-[4-(azepan-1-yl)butyl]-6-methyl-4-phenyl-2,3-dihydropyridazin-3-one]
